According to patent US20130260436A1, “Methods of Identifying and Characterizing Natural Product Gene Clusters” (Victoria LInk Limited, priority 2010, published 2013):

Assays:
[1] = test system: PcpS; test: Screening of the LOPAC1280 library for PcpS inhibitors with the BpsA coupled assay; assay type: biochemical, P. aeruginosa; details: compound approximately 18 μM; 0.18 μM PcpS
Experimental: 1.8 μL of each compound from a Lopac^1280 library plate was added to 30 μL of 10% DMSO in MQ using a CyBio CyBi-well, giving a final compound concentration of approximately 18 μM. Next 50 μl, of a master mix containing 5 μM Co-enzyme A, 1.66 μM BpsA, 20 mM MgCl2, 5 mM ATP, 8 mM L-Gln, 100 mM Tris-HCl pH 7.8 and MQ was added. To initiate the reaction 20 μL of PcpS at a final reaction concentration of 0.18 μM and MQ was added rapidly, using an automatic dispensing Pipette. The plate was then shaken for 10 seconds at 1000 rpm to mix the compounds. The plate was then read 25 times to measure the Absorbance at 590 nm (with 20 second intervals between each read) in an EnSpire plate reader at 25° C. […] Negative and positive controls were established in wells in these columns, and used to monitor the reaction. […] Both control reactions were run in triplicate.
1.8 μL of each compound from a Lopac^1280 library plate was added to 304 of 10% DMSO in MQ using a CyBio CyBi-well, giving a final compound concentration of approximately 18 μM. Next 50 μL of a master mix containing 5 μM Co-enzyme A, 1.66 μM BpsA, 20 mM MgCl2, 5 mM ATP, 8 mM L-Gln, 100 mM Tris-HCl pH 7.8 and MQ was added. […] The plate was then read 25 times to measure the Absorbance at 590 nm (with 20 second intervals between each read) in an EnSpire plate reader at 25° C. […]

[2] = molecular target: T1, holo-BpsA (Streptomyces lavendulae, UniProt Q1MWN4); test: Inhibition of indigoidine synthesis by pre-activated holo-BpsA (counter-screen); assay type: biochemical, S. lavendulae ATCC 11924; details: pre-activated holo-BpsA in isolation
T1 construct: 6His; made in house; host or cells: E. coli
T1 sequence (Q1MWN4 1-1282): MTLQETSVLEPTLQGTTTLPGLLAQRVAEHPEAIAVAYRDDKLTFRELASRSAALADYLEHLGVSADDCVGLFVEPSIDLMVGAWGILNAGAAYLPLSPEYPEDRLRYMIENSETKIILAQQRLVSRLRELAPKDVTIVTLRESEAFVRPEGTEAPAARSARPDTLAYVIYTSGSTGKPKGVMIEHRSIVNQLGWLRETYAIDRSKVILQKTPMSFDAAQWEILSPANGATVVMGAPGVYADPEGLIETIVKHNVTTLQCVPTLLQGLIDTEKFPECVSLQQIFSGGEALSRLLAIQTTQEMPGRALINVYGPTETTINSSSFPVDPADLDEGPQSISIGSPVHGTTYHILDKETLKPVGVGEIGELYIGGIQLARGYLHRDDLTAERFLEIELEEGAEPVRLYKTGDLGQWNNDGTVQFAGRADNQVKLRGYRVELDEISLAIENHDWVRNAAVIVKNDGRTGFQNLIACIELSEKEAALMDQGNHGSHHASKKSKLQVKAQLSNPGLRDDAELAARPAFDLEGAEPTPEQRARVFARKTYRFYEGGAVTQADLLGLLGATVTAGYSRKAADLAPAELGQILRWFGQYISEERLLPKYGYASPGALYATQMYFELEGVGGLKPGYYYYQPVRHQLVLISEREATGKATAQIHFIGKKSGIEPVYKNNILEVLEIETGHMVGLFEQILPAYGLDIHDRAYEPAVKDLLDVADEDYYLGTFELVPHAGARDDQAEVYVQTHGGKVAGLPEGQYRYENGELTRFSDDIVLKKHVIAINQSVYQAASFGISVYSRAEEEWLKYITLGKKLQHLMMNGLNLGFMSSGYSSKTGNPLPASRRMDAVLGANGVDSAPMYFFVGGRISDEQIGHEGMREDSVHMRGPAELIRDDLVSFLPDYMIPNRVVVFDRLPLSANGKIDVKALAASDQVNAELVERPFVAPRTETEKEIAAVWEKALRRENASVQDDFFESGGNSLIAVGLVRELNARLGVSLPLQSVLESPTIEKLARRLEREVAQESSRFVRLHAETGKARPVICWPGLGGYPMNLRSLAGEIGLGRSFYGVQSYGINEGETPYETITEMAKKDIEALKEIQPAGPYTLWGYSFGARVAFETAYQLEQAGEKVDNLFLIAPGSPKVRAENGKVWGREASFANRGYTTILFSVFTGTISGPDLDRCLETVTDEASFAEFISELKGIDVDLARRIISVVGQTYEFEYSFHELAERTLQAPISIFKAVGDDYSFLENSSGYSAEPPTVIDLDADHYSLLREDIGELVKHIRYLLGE

[3] = molecular target: PP1183 (Pseudomonas putida, UniProt Q88NM4); test: BpsA coupled PPTase inhibition assay, PP1183; assay type: biochemical, P. putida KT2440; details: for IC50: IC50, PP1183, 95% CI in parentheses; for Ki: PP1183, Cheng-Prusoff, competitive inhibition
PP1183, sequence (Q88NM4 entry or part of it): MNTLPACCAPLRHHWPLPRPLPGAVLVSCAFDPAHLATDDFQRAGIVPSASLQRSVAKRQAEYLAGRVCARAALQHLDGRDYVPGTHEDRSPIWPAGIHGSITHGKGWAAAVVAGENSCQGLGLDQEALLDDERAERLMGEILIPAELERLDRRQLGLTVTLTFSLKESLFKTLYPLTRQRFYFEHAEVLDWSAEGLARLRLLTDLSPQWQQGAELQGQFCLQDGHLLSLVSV

[4] = molecular target: PcpS (Pseudomonas aeruginosa, UniProt Q9I4H2); test: BpsA coupled PPTase inhibition assay, PcpS; assay type: biochemical; details: for IC50: 95% CI in parentheses; for Ki: Cheng-Prusoff, competitive inhibition
PcpS (Pseudomonas aeruginosa, UniProt Q9I4H2), sequence (Q9I4H2 entry or part of it): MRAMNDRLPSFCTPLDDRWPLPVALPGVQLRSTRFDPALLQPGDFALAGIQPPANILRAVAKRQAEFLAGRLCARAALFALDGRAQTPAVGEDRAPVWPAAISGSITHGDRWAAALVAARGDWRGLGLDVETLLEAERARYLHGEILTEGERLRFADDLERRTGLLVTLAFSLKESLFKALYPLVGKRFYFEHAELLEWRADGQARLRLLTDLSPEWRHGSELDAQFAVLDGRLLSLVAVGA

[5] = molecular target: Sfp (Bacillus spizizenii, UniProt G4NQW2); test: BpsA coupled PPTase inhibition assay, Sfp; assay type: biochemical, B. subtilis subsp. spizizenii ATCC6633; details: for IC50: IC50, Sfp, 95% CI in parentheses; for Ki: Sfp, Cheng-Prusoff, competitive inhibition
Sfp, sequence (G4NQW2 entry or part of it): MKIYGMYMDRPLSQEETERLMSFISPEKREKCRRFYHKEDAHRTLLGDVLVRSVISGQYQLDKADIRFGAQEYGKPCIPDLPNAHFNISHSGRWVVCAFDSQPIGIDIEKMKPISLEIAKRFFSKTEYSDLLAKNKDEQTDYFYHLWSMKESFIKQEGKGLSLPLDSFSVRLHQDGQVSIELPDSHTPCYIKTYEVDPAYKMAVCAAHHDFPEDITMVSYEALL

[6] = molecular target: all three PPTases; test: BpsA coupled PPTase inhibition assay, summary over all three PPTases
Experimental: Each of the three PPTases was evaluated for inhibition across a two-fold serial dilution series of 6-NOBP (250-0.12 μM) with CoA concentration fixed at either 10 or 2.5 μM. […] Derived Ki values were most consistent between CoA concentrations when the Cheng-Prusoff equation for competitive inhibition was employed.
Triplicate two fold serial dilution series (250-0.12 μM) of the previously identified PPTase inhibitor 6-NOBP were established in a final volume of 50 ml 10% DMSO in a 96 wp. 100 μL of reaction mix (20 or 5 μM CoA, 5 mM ATP, 20 mM MgCl2, 8 mM L-Gln and 100 mM Tris-CL, 1.66 μM apo-BpsA, pH 7.8) was then added to each well. Reactions were then initiated by addition of 50 μL 0.32-1.0 μM PPTase in water to each well followed by mixing at 1000 rpm for 10 s. A590 values were then recorded and PPTase velocities determined as previously described.

[7] = test system: PcpS; test: Qualitative assessment of PcpS inhibition relative to 6-NOBP; assay type: biochemical, P. aeruginosa; details: each inhibitor 20 μM; 0.18 μM PcpS
Experimental: Duplicate wells with different inhibitors added. The No PcpS wells have ddH2O added instead of PcpS. The BpsA only wells have DMSO added instead of an inhibitor. The 6-NOBP wells have had 6-NOBP added at a final concentration of 20 μM. The Bay 11-7085 wells have had Bay 11-7085 added to a final concentration of 20 μM.
Bay 11-7085 was then serially diluted from 20 μM to 0.625 μM across the wells. The reaction was initiated by the addition of PcpS to a final concentration of 0.18 μM and indigoidine production was then monitored at 590 nm. Each concentration was tested in triplicate and the average of the three wells was taken to calculate the maximum velocity. The maximum velocity in each well was expressed as a percentage of the maximum velocity in the wells where no Bay11-7085 was present. For qualitative assessment of Bay11-7085 mediated inhibition of PcpS relative to 6-NOBP, duplicate wells were established with either 20 μM of each inhibitor or with DMSO added instead of an inhibitor (positive control). For a negative control, ddH2O was added instead of PcpS. Reactions were initiated by addition of 20 μL of PcpS at a final reaction concentration of 0.18 μM (or H2O for the negative control) using an automatic dispensing Pipette. The plate was then shaken for 10 seconds at 1000 rpm to mix the compounds, and incubated on the benchtop until the positive control wells had gone dark blue.

[8] = Effect of pH on indigoidine stability (loss of colouration, A590); assay type: physicochemical; details: culture supernatant, 50 mM sodium phosphate buffer, 20 min
Experimental: (A) Diluted sterile supernatant from an indigoidine producing culture was incubated for 20 min with 50 mM sodium phosphate buffer at each of the indicated pH values in triplicate. Loss of colouration was then assessed by measuring A590. Error bars are presented as +/− one standard deviation. (B) Indigoidine reactions differing only in the pH of the buffer used are shown.
The supernatant from BpsA-expressing cultures reached a much higher A590 (˜1.2) than the maximum achieved from any in vitro experiments (˜0.3) (not shown). Without wishing to be bound by theory, the inventors hypothesized that that since indigoidine produced and exported from a cell in vivo was effectively removed from exposure to intracellular enzymes, the loss of in vitro product may have been due to enzymatic degradation in the in vitro assay preparations. This could be due to BpsA itself, the activating PPTase or an undetected contaminating species. To test this possibility, filter sterilized culture supernatant containing indigoidine was incubated with various concentrations of each enzyme preparation used for in vitro assays. No difference in pigment levels resulted from this treatment. It was concluded that the loss of pigmentation seen in vitro was not enzyme catalysed. […] A more detailed analysis of the relationship between pH and pigment stability was then conducted. […]

[9] = Kuhn et al, 1965; cited from earlier work
[10] = test system: E. coli; assay type: cell-based; details: high levels of active BpsA, excess L-Gln, extended time
Excerpt: In one embodiment, activation of the NRPS BpsA then produces the dye, indigoidine. […] Due to this toxicity, E. coli cells expressing high levels of active BpsA in the presence of excess L-Gln for an extended period of time are not viable. Toxicity may be avoided by plating an E. coli reporter strain comprising a CNA expression construct on a selection medium lacking an inducer of BpsA expression. In one embodiment the inducer is IPTG.
We constructed plasmids that allowed IPTG regulated co-expression of a candidate PPTase and BpsA in E. coli BL21(DE3). To enable IPTG regulated co-expression the BpsA gene of S. lavendulae ATCC 11924 was cloned into pCDFDUET-1 (Novagen) and three candidate PPTases into the (origin of replication compatible) vector pET28a(+). […] In contrast, if IPTG was absent from the medium viable co-transformed cells were recovered with good efficiency (not shown). […] In order to circumvent this problem we employed auto-induction agar plates, prepared by addition of 1.5% agar to Studier ZYP-5052 auto-induction medium (Studier 2005). Use of auto-induction agar plates allowed for both rapid growth and efficient induction of pigment production following extended incubation at room temperature.
Initial trials were run using E. coli harbouring a P. putida PPTase expression plasmid. […]

For `O=Nc1ccc2oc(=O)ccc2c1` [6-NOBP], the “Outcome in high throughput screen for PcpS inhibitors” value [1] was “weak PcpS inhibitor”, the IC50 [2] was 29.2 µM and the IC50 ([3]; 1.25 μM CoA) was 3.7 µM. It also gave an IC50 ([3]; 5 μM CoA) of 9.81 µM, a Ki ([3]; 1.25 μM CoA) of 3.3 µM and a Ki ([3]; 5 μM CoA) of 6.8 µM. It also gave an IC50 ([4]; 1.25 μM CoA) of 4.05 µM, a Ki ([4]; 1.25 μM CoA) of 3.1 µM and an IC50 ([4]; 5 μM CoA) of 10.8 µM. The Ki ([4]; 5 μM CoA) was 4.7 µM, the IC50 ([5]; 1.25 μM CoA) was 2.11 µM and the IC50 ([5]; 5 μM CoA) was 9.06 µM. It also gave a Ki ([5]; 1.25 μM CoA) of 0.7 µM, a Ki ([5]; 5 μM CoA) of 1 µM and an IC50 ([6]; read-out: IC50 values, range over the three PPTases, CoA concentration set at 5 μM) of 9.1 to 10.8 µM. The Ki ([6]; read-out: K, values, range over the three PPTases, converted from IC50 with Km of each PPTase) was 0.5 to 7.5 µM.

In the case of `CC(C)(C)c1ccc(S(=O)(=O)/C=C/C#N)cc1` [Bay11-7085], the “Qualitative inhibition of PcpS relative to 6-NOBP” value [7] is reported as “clearly a stronger inhibitor of PcpS than 6-NOBP”.

For indigoidine, the “Pigment stability versus pH” value [8] is listed as “decolouration occurred to a greater extent at higher pH”, the “Pigment stability versus pH (previous observations)” value [9] is listed as “unstable at alkaline pH” and the “Toxicity to E. coli” value [10] is listed as “toxic to E. coli over time”.
